Assay results taken from patent US20160074298A1, “POLYPHENOL/FLAVONOID COMPOSITIONS AND METHODS OF FORMULATING ORAL HYGIENIC PRODUCTS” (VIZURI HEALTH SCIENCES LLC, priority 2014, published 2016).

What was measured:
[1] = Heat solubilization in Kolliphor RH-40; format: physicochemical
Excerpt: Step 1. […] Step 3. […] Step 4. […] About 5% solution was stable. Step 1. […] Step 3.

[2] = Stability in alkaline toothpaste with sodium bicarbonate and peroxide; format: physicochemical; details: high pH ~10-10.5; sodium bicarbonate, sodium carbonate peroxide, peroxide stabilizer
Protocol: It was experimentally determined that the toothpaste formulations containing both sodium bicarbonate and sodium carbonate peroxide together with stabilizing polymer formulations had pHs of ˜10-10.5. When aglycone flavone (i.e., apigenin and luteolin) powders were added to dentifrices including sodium bicarbonate, sodium bicarbonate peroxide and a peroxide stabilizer, it was also determined that soluble flavone sodium salts were formed that were stable in these highly oxidative peroxide compositions. The presence of stable soluble alkali metal flavone salts with highly anti-oxidant and anti-inflammatory properties in an emulsion formulation was totally unanticipated since aglycone flavones are prone to oxidative decomposition. Curcumin calcium chelate was fabricated and found to be stable in high pH PeroxiCare® toothpaste. Other curcumin chelates (Boron, Zn) were also found to be stable in this formulation, but were not tested in this study. This study was designed to determine if curcumin solubilized using either a heat solubilization or chelated salt technology performed in the same way as earlier results with the flavone apigenin. Vanillin is a breakdown product of curcumin and would be present if the curcumin had substantially decomposed (the lack of vanillin is indicative of a stable delivery of curcumin).

[3] = Saliva concentrations of chronic 1% apigenin toothpaste users (Example 12); format: in vivo, human; details: chronic users of PeroxiCare with 1% apigenin
Protocol: Two subjects who have used PeroxiCare® with apigenin at a 1% concentration on a chronic basis provided saliva samples at:
(§1) Saliva was collected at each time point in 50 ml Falcon tubes and immediately transferred to a freezer. All samples were transported to Tufts University within 24 hours of collection. Apigenin in saliva was quantified using high performance liquid chromatograph (HPLC) with electrochemical detection (ECD). Apigenin in 1 ml saliva was extracted using 3 ml acetonitrile. After 2 min of rigorous vortexing, the mixture was spun at 2,000 rpm for 15 min at 4° C. Supernatant was dried under N2 gas, reconstituted with mobile phase A, and analyzed for apigenin with HPLC-ECD. The limit of quantification (LOQ) for apigenin and EGCG in this assay is 15 and 25 ng/ml saliva, respectively.

[4] = Apigenin and EGCG in saliva following use of formulated toothpastes (Example 15); format: in vivo, human; details: formulated into a toothpaste product
Protocol: This is a clinical study testing the effect of using one of 3 toothpaste products formulated with apigenin and epigallocatechin gallate (EGCG) on the retention of these flavonoids in the saliva. Briefly, 3 subjects provided saliva samples:
Each subject brushed their teeth for 2 min using the sulcular brushing technique with ˜1.8 gm toothpaste on a new toothbrush. Each subject brushed with only one of 3 products:
Saliva was collected at each time point in 50 mL Falcon tubes and immediately transferred to a freezer. All samples were transported to Tufts University within 8 hours of collection.
as §1, with “Apigenin” for “Saliva was collected at each time point in 50 ml Falcon tubes and immediately transferred to a freezer. All samples were transported to Tufts University within 24 hours of collection. Apigenin”, “Apigenin and EGCG” for “Apigenin”, “1 mL” for “1 ml”

[5] = Water solubility of flavonoid classes (Table XXIII); format: physicochemical; details: 20° C.
[6] = Colorimetric retention of EGCG in saliva after brushing (Example 14); format: in vivo, human; details: PeroxiCare toothpaste with 0.1 wt. % EGCG and 0.1 wt. % ascorbic acid, pH ~10.5; saliva after brushing and rinsing
Protocol: A saliva sample with an EGCG containing alkaline toothpaste was obtained (1) before brushing and (2) 1 minute after brushing immediately after rinsing. The subject brushed for 2 minutes using the sulcular brushing technique with ˜1.8 gm toothpaste on a toothbrush.
A 5 ml sample of saliva was collected 10 minutes prior to brushing. Tooth brushing was conducted for 2 minutes with 1.8 gm of toothpaste applied to the brush. One minute after brushing, the oral cavity was rinsed with 50 ml of water. Following rinsing, about 8 ml of saliva was collected. The pH of the saliva was measured. In addition, the saliva samples were further made alkaline with the addition of NaOH crystals and the color of the resulting sample noted.

[7] = Stability of aqueous microemulsions as a function of pH; format: physicochemical; details: nonionic surfactants Polysorbate 80 and Cremophor/Kolliphor RH-40
Excerpt: Stable microemulsions with apigenin and the nonionic surfactants, Polysorbate 80 and Cremophor/Kolliphor RH-40, were achieved provided a pH level of 8.0 to 8.5 was maintained. For luteolin, it as determined that a pH of 7 was required to maintain a stable aqueous microemulsion; and for resveratrol, a pH of >4.5 to 7.5.

[8] = Solubilization in Listerine mouth rinse as sodium salt; format: physicochemical
Protocol: 100 Grams of the Listerine® Resveratrol Containing Mouth Rinse Formulation was Prepared as Follows: • 1. 98.4 grams of the Listerine® caramel colored mouth rinse was added to a 300 ml Pyrex glass beaker. […] About 0.2 grams of fine NaOH crystals were added to the mixture from Step 2 and thoroughly mixed. A uniformly caramel colored blend resulted with a measured pH of ˜10. […] The pH of the mixture from Step 3 was adjusted to a pH 6.5 by the addition of about 0.2 grams of citric acid crystals. […] • 1. 98.6 grams of the Listerine® caramel colored mouthrinse was added to a 300 ml Pyrex glass beaker. […] About 0.2 grams of fine NaOH crystals were added to the mixture from Step 2 and thoroughly mixed. A uniformly caramel colored blend resulted with a measured pH of ˜10. […] The pH of the mixture from Step 2 was adjusted to a pH 8 by the addition of about 0.2 grams of citric acid crystals.

## O=c1cc(-c2ccc(O)cc2)oc2cc(O)cc(O)c12 [Apigenin, 4′,5,7,-trihydroxyflavone]
[1]
  apigenin solubilized in RH-40: more than 5%
[2]
  stability in alkaline peroxide toothpaste (PeroxiCare): stable
[3]
  persistence of apigenin levels in saliva post-brushing: at least 8 hours
[4]
  time found in saliva following toothpaste use: at least one hour
5.0 wt. % apigenin in PS80, heated approaching 300 degree C, cooled to ambient
  stable apigenin concentrate in PS80: 50 mg/mL

## O.Oc1cc(O)c2c(c1)O[C@H](c1ccc(O)c(O)c1)[C@@H](O)C2 [Catechin]
[5]
  Water Solubility: ~5 mg/mL
20° C., thermal processing method, not the maximum solubility levels
  PS80 Solubility: 50 mg/mL

## O=C(O[C@@H]1Cc2c(O)cc(O)cc2O[C@@H]1c1cc(O)c(O)c(O)c1)c1cc(O)c(O)c(O)c1 [Epigallocatechin Gallate (EGCG), Epigallocatechin gallate]
[6]
  retention of EGCG in saliva by color change on alkalizing: retained after brushing
[4]
  time found in saliva following toothpaste use: at least one hour

## O=c1cc(-c2ccc(O)c(O)c2)oc2cc(O)cc(O)c12 [luteolin, 3′,4′,5,7-tetrahydroxyflavone]
[7]
  pH required to maintain a stable aqueous microemulsion: 7
[2]
  stability in alkaline peroxide toothpaste (PeroxiCare): stable
[8]; adjusted to pH 8
  luteolin concentration of transparent solution: 1.5 mg/mL

## Oc1ccc(C=Cc2cc(O)cc(O)c2)cc1 [resveratrol]
[8]; adjusted to pH 6.5
  resveratrol concentration of transparent solution: 1.2 mg/mL

## calcium-curcumin chelate
[1]; equivalent concentration of 20% curcumin
  behaviour in Kolliphor RH-40: precipitates out
[1]; heat solubilized
  stable solution in Kolliphor RH-40: About 5%
[2]
  stability in alkaline peroxide toothpaste (PeroxiCare): stable
